In patent publication US11780849B2, “Imino sulfanone inhibitors of ENPP1” (Volastra Therapeutics, Inc., priority 2020, dated 2023) one finds Ki data, which are given here for 36 compounds.

Experiment [1] has as its target ENPP1 on MDA-MB-231 cells (Homo sapiens (Human), UniProt P22413). The experiment can be described thus: Assay 3: inhibition of ENPP1 hydrolysis of AMP p-nitrophenyl ester on MDA-MB-231 cells.
In another experiment the target is ENPP-1 ECD (Homo sapiens (Human), UniProt P22413). The experiment can be described thus: Assay 2: inhibition of ENPP1 hydrolysis of 2′,3′-cGAMP (AMP-Glo, […] enzyme).
Setting [2] is: read-out: Assay 3 (KI, app), apparent KI from IC50 via Cheng/Prusoff, pNP-AMP […], MDA-MB-231 cells, pH 7.4, 37° C., 3 h, unit inferred.
Setting [3] is: read-out: Assay 2 (KI), ENPP1 hydrolysis of 2′,3′-cGAMP, AMP-Glo, […] ENPP-1, 24 μM cGAMP.
Where [4] appears, read: read-out: Assay 2 (KI), inhibition of ENPP1 hydrolysis of 2′,3′-cGAMP, no unit in Table 18 (Table 17 legend for this assay uses nM).
The mark [5] stands for this setting: Assay 2 (KI), ENPP1 hydrolysis of 2′,3′-cGAMP, AMP-Glo, […] ENPP-1, 24 μM cGAMP.
Where [6] appears, read: Assay 2 (KI), inhibition of ENPP1 hydrolysis of 2′,3′-cGAMP, no unit in Table 18 (Table 17 legend for this assay uses nM).

Each structure is given as a SMILES string. Like-named read-outs stand apart in the source and are kept apart here.

Sequence of ENPP1 on MDA-MB-231 cells (P22413 whole entry, the tested form may be a part): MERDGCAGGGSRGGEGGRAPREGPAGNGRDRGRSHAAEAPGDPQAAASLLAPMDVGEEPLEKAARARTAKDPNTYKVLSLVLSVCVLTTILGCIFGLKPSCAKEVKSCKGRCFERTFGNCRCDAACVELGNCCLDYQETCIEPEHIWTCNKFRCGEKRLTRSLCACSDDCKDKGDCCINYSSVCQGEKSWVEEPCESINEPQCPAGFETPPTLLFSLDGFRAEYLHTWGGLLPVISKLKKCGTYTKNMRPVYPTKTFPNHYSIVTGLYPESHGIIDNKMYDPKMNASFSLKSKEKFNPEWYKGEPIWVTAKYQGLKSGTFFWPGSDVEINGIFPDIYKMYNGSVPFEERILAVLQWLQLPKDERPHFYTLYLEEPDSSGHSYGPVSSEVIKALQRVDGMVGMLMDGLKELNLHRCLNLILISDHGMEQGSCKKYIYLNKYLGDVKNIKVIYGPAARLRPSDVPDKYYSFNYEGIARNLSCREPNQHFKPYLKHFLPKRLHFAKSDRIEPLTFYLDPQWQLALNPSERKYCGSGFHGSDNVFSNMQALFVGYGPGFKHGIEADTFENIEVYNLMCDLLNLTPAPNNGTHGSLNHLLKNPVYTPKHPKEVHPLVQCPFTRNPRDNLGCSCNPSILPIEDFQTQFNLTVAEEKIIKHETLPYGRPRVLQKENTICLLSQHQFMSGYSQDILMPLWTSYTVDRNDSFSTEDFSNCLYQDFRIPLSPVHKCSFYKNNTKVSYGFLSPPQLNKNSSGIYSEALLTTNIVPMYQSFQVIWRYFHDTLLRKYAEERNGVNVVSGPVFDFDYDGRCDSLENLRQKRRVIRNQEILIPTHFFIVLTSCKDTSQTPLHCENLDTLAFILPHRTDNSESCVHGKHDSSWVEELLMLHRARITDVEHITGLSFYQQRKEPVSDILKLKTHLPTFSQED
Sequence of ENPP-1 ECD (P22413 98-925): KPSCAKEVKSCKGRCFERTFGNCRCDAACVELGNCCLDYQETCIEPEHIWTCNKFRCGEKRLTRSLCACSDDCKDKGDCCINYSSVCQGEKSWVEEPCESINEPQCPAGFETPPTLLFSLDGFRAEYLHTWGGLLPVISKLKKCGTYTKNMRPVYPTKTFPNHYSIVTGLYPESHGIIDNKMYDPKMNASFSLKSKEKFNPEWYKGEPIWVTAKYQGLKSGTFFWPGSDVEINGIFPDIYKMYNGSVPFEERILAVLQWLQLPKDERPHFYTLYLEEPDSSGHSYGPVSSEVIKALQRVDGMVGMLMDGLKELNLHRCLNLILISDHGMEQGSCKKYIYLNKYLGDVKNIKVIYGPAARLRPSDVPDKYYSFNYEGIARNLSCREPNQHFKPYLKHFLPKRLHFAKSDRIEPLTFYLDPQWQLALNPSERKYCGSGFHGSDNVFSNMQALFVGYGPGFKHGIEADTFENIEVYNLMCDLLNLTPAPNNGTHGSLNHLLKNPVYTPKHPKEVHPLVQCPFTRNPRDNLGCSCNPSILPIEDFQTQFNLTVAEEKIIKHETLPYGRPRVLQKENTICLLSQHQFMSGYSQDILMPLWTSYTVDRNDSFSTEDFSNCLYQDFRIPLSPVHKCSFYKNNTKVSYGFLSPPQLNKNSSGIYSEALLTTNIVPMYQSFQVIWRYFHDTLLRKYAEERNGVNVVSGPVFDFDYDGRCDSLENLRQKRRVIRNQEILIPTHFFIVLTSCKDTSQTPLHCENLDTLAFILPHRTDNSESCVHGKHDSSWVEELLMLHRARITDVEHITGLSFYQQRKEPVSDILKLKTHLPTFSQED
Protocol for ENPP-1 ECD: Assay 2: Compared to the conditions in Assay 1, this assay has a larger dynamic range and ensures the system is under steady-state conditions by reducing the enzyme concentration in the assay.
Test compounds were plated in a 3× dilution scheme in a 384 well plate. […] AMP Detection solution (10 μL) was added to each well, the plate centrifuged and incubated for 60 min.

In the case of `COc1cc2nccc(N3CCC(CC[S@@](C)(=N)=O)CC3)c2cc1Cl` [Compound 141a], the results for the Ki (in experiment [1] (setting [2]); at ENPP-1 ECD (setting [3]); on ENPP-1 ECD (setting [4])) were 28 nM, < 3 nM and 0.26 nM, respectively.
As to `COc1ccc2c(N3CCC(CCS(C)(=N)=O)CC3)c(C#N)cnc2c1` (stereo not drawn) [Compound 143, 4-(4-{2-[imino(methyl)oxo-λ6-sulfanyl]ethyl}piperidin-1-yl)-7-methoxyquinoline-3-carbonitrile], the Ki in experiment [1] is 180 nM; on ENPP-1 ECD (setting [5]) it was < 3 nM; on ENPP-1 ECD (setting [6]), 1 nM.
In the case of `COc1cc2ncc(C#N)c(N3CCC(CCS(C)(=N)=O)CC3)c2cc1OC` (stereo not drawn) [Compound 144, 4-(4-{2-[imino(methyl)oxo-λ6-sulfanyl]ethyl}piperidin-1-yl)-6,7-dimethoxyquinoline-3-carbonitrile], the Ki in experiment [1] is 19 nM; on ENPP-1 ECD (setting [5]) it was < 3 nM; on ENPP-1 ECD (setting [6]), 0.28 nM.
The like results for `COc1cccc2c(N3CCC(CS(C)(=N)=O)CC3)ncnc12` (stereo not drawn) [Compound 146, imino({[1-(8-methoxyquinazolin-4-yl)piperidin-4-yl]methyl})methyl-λ^6-sulfanone] were, in that order, 15 nM, < 3 nM and 0.36 nM.
On to `COc1cccc2c(N3CCC(C[S@@](C)(=N)=O)CC3)ncnc12` [Compound 146a], for which the Ki in experiment [1] (setting [2]) was found to be 4.5 nM; at ENPP-1 ECD (setting [4]), 0.12 nM.
For the compound `COc1cc2nccc(N3CCC4(CC3)CCN(S(C)(=N)=O)C4)c2cc1Cl` (stereo not drawn) [Compound 156, [8-(6-chloro-7-methoxyquinolin-4-yl)-2,8-diazaspiro[4.5]decan-2-yl](imino)methyl-λ^6-sulfanone], the Ki in experiment [1] is 4.1 nM; on ENPP-1 ECD (setting [5]) it was < 3 nM; on ENPP-1 ECD (setting [6]), 0.03 nM.
With `COc1cc2nccc(N3CCC4(CC3)CCN([S@@](C)(=N)=O)C4)c2cc1Cl` [Compound 156a], the Ki in experiment [1] (setting [2]) was 1.7 nM; on ENPP-1 ECD (setting [3]), < 3 nM; at ENPP-1 ECD (setting [4]), 0.016 nM.
In the case of `CCS(=N)(=O)N1CCC2(CCN(c3ncnc4cc(OC)c(OC)cc34)CC2)C1` (stereo not drawn) [Compound 159, [8-(6,7-dimethoxyquinazolin-4-yl)-2,8-diazaspiro[4.5]decan-2-yl](ethyl)imino-λ^6-sulfanone], the results for the Ki (in experiment [1]; on ENPP-1 ECD (setting [5]); at ENPP-1 ECD (setting [6])) were 3.6 nM, < 3 nM and 0.025 nM, respectively.
The like results for `COc1cc2ncnc(N3CCC4(CC3)CCN(S(=N)(=O)C3CC3)C4)c2cc1OC` (stereo not drawn) [Compound 160, {cyclopropyl[8-(6,7-dimethoxyquinazolin-4-yl)-2,8-diazaspiro[4.5]decan-2-yl]imino-λ^6-sulfanyl}one] were, in that order, 0.45 nM, < 3 nM and 0.021 nM.
In the case of `COc1cc2ncnc(N3CCC4(CC3)CCN([S@](=N)(=O)C3CC3)C4)c2cc1OC` [Compound 160a], the Ki came to 0.22 nM in experiment [1] (setting [2]) and 0.007 nM on ENPP-1 ECD (setting [4]).
Consider `COc1cc2nccc(-c3ccc4c(c3)CN([S@@](C)(=N)=O)CC4)c2cc1OC` [Compound 161a], for which the Ki in experiment [1] (setting [2]) is 5.2 nM; on ENPP-1 ECD (setting [3]), < 3 nM; at ENPP-1 ECD (setting [4]), 0.015 nM.
For the compound `COc1ccc2c(Oc3ccc(S(=N)(=O)C4CN(C(C)=O)C4)cc3)ccnc2c1` (stereo not drawn) [Compound 166, 1-[3-({4-[(7-methoxyquinolin-4-yl)oxy]phenyl}imino-λ^6-sulfanyl)azetidin-1-yl]ethan-1-one], the results for the Ki (in experiment [1]; at ENPP-1 ECD (setting [6])) were 230 nM and 3.1 nM, respectively.
The like results for `COc1ccc2c(Oc3ccc(S(C)(=N)=O)cc3)c(C)cnc2c1` (stereo not drawn) [Compound 168, imino({4-[(7-methoxy-3-methylquinolin-4-yl)oxy]phenyl})methyl-λ^6-sulfanone] were, in that order, 40 nM and 0.84 nM.
In the case of `COc1cc2nccc(OCc3cccc(S(C)(=N)=O)c3)c2cc1F` (stereo not drawn) [Compound 169, (3-{[(6-fluoro-7-methoxyquinolin-4-yl)oxy]methyl}phenyl)(imino)methyl-λ^6-sulfanone], the figures for the Ki (in experiment [1]; at ENPP-1 ECD (setting [6])) were 1.5 nM and 0.051 nM, respectively.
`COc1cc2nccc(OCc3cccc([S@@](C)(=N)=O)c3)c2cc1F` [Compound 169a]: the Ki was > 190 nM in experiment [1] (setting [2]) and 15 nM on ENPP-1 ECD (setting [4]).
The like results for `COc1cc2nccc(OCc3cccc([S@](C)(=N)=O)c3)c2cc1F` [Compound 169b] were, in that order, 1.5 nM and 0.018 nM.
In the case of `COc1ccc2c(OCc3cc(S(C)(=N)=O)co3)ccnc2c1` (stereo not drawn) [Compound 170, imino(5-{[(7-methoxyquinolin-4-yl)oxy]methyl}furan-3-yl)methyl-λ^6-sulfanone], the results for the Ki (in experiment [1]; at ENPP-1 ECD (setting [6])) were 25 nM and 0.7 nM, respectively.
The like results for `COc1cc2ncnc(OCc3cccc(S(C)(=N)=O)c3)c2cc1OC` (stereo not drawn) [Compound 173, (3-{[(6,7-dimethoxyquinazolin-4-yl)oxy]methyl}phenyl)(imino)methyl-λ^6-sulfanone] were, in that order, 9.2 nM and 0.17 nM.
Turning to `COc1ccc2c(OCc3cccc(S(C)(=N)=O)c3)ncnc2c1` (stereo not drawn) [Compound 174, imino(3-{[(7-methoxyquinazolin-4-yl)oxy]methyl}phenyl)methyl-λ^6-sulfanone], the Ki was 240 nM in experiment [1] (setting [2]) and 5.2 nM at ENPP-1 ECD (setting [4]).
Regarding `COc1cc2nccc(OCc3cccc(S(C)(=N)=O)c3)c2cc1OC` (stereo not drawn) [Compound 175, (3-{[(6,7-dimethoxyquinolin-4-yl)oxy]methyl}phenyl)(imino)methyl-λ^6-sulfanone], the Ki is 3.5 nM in experiment [1] and 0.037 nM at ENPP-1 ECD (setting [6]).
On to `COc1cc2nccc(OCc3cccc([S@](C)(=N)=O)c3)c2cc1OC` [Compound 175a], for which the Ki in experiment [1] (setting [2]) came to 0.53 nM; at ENPP-1 ECD (setting [4]), 0.011 nM.
Consider `COc1cc2nccc(OCc3cccc(S(C)(=N)=O)c3)c2cc1Cl` (stereo not drawn) [Compound 176, (3-{[(6-chloro-7-methoxyquinolin-4-yl)oxy]methyl}phenyl)(imino)methyl-λ^6-sulfanone], for which the Ki is 7.2 nM in experiment [1] and 0.094 nM on ENPP-1 ECD (setting [6]).
As to `COc1ccc2c(OCc3cc(F)cc(S(C)(=N)=O)c3)ccnc2c1` (stereo not drawn) [Compound 177, (3-fluoro-5-{[(7-methoxyquinolin-4-yl)oxy]methyl}phenyl)(imino)methyl-λ^6-sulfanone], the Ki in experiment [1] was found to be 1.5 nM; at ENPP-1 ECD (setting [6]) it was 0.03 nM.
`COc1ccc2c(OCc3cc(F)cc([S@](C)(=N)=O)c3)ccnc2c1` [Compound 177b]: the Ki in experiment [1] (setting [2]) was found to be 0.48 nM; at ENPP-1 ECD (setting [4]), 0.0085 nM.
On to `COc1cccc2c(N3CCC(CS(C)(=N)=O)CC3)c(C#N)cnc12` (stereo not drawn) [Compound 179, 4-(4-{[imino(methyl)oxo-λ^6-sulfanyl]methyl}piperidin-1-yl)-8-methoxyquinoline-3-carbonitrile], for which the Ki stood at 3.3 nM in experiment [1] and 0.048 nM on ENPP-1 ECD (setting [6]).
For the compound `COc1cccc2c(N3CCC(C[S@](C)(=N)=O)CC3)c(C#N)cnc12` [Compound 179b], the Ki in experiment [1] (setting [2]) is 0.63 nM; on ENPP-1 ECD (setting [4]), 0.014 nM.
On to `COc1cc2ncnc(N3CCC4(CCC(S(C)(=N)=O)C4)CC3)c2cc1OC` (stereo not drawn) [Compound 181, [8-(6,7-dimethoxyquinazolin-4-yl)-8-azaspiro[4.5]decan-2-yl](imino)methyl-λ^6-sulfanone], for which the Ki in experiment [1] is 28 nM; at ENPP-1 ECD (setting [6]), 0.16 nM.
The like results for `COc1cc2nccc(N3CC4(CC(CS(C)(=N)=O)C4)C3)c2cc1F` (stereo not drawn) [Compound 184, {[2-(6-fluoro-7-methoxyquinolin-4-yl)-2-azaspiro[3.3]heptan-6-yl]methyl}(imino)methyl-λ^6-sulfanone] were, in that order, 5.5 nM and 0.13 nM.
For the compound `COc1cc2nccc(N3CC4(CC(C[S@@](C)(=N)=O)C4)C3)c2cc1F` [Compound 184a], the Ki in experiment [1] (setting [2]) amounted to 1.7 nM; at ENPP-1 ECD (setting [4]), 0.1 nM.
The like results for `COc1cc2nccc(N3CC4(CC(C[S@](C)(=N)=O)C4)C3)c2cc1F` [Compound 184b] were, in that order, 58 nM and 2.5 nM.
In the case of `COc1cccc2c(N3CCC(O)(CS(C)(=N)=O)CC3)ncnc12` (stereo not drawn) [Compound 185, {[4-hydroxy-1-(8-methoxyquinazolin-4-yl)piperidin-4-yl]methyl}(imino)methyl-λ^6-sulfanone], the figures for the Ki (in experiment [1]; on ENPP-1 ECD (setting [6])) were 0.45 nM and 0.028 nM, respectively.
Regarding `COc1cccc2c(N3CCC(O)(C[S@@](C)(=N)=O)CC3)ncnc12` [Compound 185a], the Ki in experiment [1] (setting [2]) worked out at 0.32 nM; on ENPP-1 ECD (setting [4]), 0.013 nM.
With `COc1cc2nccc(N3CC4(CC(CS(C)(=N)=O)C4)C3)c2cc1OC` (stereo not drawn) [Compound 186, {[2-(6,7-dimethoxyquinolin-4-yl)-2-azaspiro[3.3]heptan-6-yl]methyl}(imino)methyl-λ^6-sulfanone], the Ki in experiment [1] is 17 nM; on ENPP-1 ECD (setting [6]) it was 0.38 nM.
The like results for `CCOc1cccc2c(N3CCC(CS(C)(=N)=O)CC3)ncnc12` (stereo not drawn) [Compound 187, {[1-(8-ethoxyquinazolin-4-yl)piperidin-4-yl]methyl}(imino)methyl-λ^6-sulfanone] were, in that order, 4.4 nM and 0.19 nM.
The like results for `COc1cc2nncc(N3CC4(CC(CS(C)(=N)=O)C4)C3)c2cc1OC` (stereo not drawn) [Compound 188, {[2-(6,7-dimethoxycinnolin-4-yl)-2-azaspiro[3.3]heptan-6-yl]methyl}(imino)methyl-λ^6-sulfanone] were, in that order, 6.5 nM and 0.074 nM.
The like results for `COc1cccc2c(N3CCC(CS(=N)(=O)C4CC4)CC3)c(C#N)cnc12` (stereo not drawn) [Compound 189, 4-(4-{[cyclopropyl(imino)oxo-λ^6-sulfanyl]methyl}piperidin-1-yl)-8-methoxyquinoline-3-carbonitrile] were, in that order, 0.45 nM and 0.033 nM.
